Experimental data published in US11716994B2, “Combinations of Yersinia entomophaga and pesticides or other substances” (priority 2017, dated 2023).
“And” between values parts separate entries of the source, which are not always exact repeats. Identical values can stand only once. Like-named read-outs stand apart in the source and are kept apart here.

Experiments:
[1] = test system: tobacco budworm
[2] = test system: Yersinia entomophaga; assay: CFU counts after exposure of Yersinia entomophaga to insecticides; assay type: cell-based; conditions: 1 hour contact
Description: To test combinations of Yersinia entomophaga and pesticides for their ability to produce a pesticidal effect, or an effect on plant growth or yield, we first put various insecticides in contact with Yersinia to identify insecticides that had minimal toxicity to Yersinia entomophaga. The logic was that, if Yersinia entomophaga is to function well in combination with a chemical insecticide, the chemical insecticide would ideally have low or no effect on the ability of Yersinia entomophaga to survive, grow and/or to function.
To perform this study, we selected amounts of various insecticides based on the percent of the specific insecticide in the insecticide composition obtained from a manufacturer. We also considered the application rate of the particular insecticide, as recommended by the manufacturer. […] Generally, the 1× amount was considered possibly the lowest amount of insecticide that may be considered as an effective amount for use in the combinations disclosed herein. For each insecticide, we also used a higher amount of insecticide (generally a 5× or 10× amount).
The 1× and 5×/10× amounts of each insecticide were added to tubes along with 1 ml of ethyl acetate. The tubes were mixed until the insecticides dissolved. The tubes were left open in a fume hood overnight to allow the ethyl acetate to evaporate. The insecticide remained in the tubes, as a solid coat on the interior surface of the tubes.
A growing culture of Yersinia entomophaga, grown in LB medium, was diluted and 1 ml of the diluted culture was added to each tube containing the dried insecticide. The tubes were mixed and then left on the bench top for 1 hour. Then, 100 μl from each tube was plated onto LB plates in triplicate in CFU assays. Plates were incubated at 25° C. for 48 hours and colonies were counted.

[3] = test system: cabbage looper
[4] = test system: fall armyworm; conditions: fipronil 12 mg/L
Description: To produce cell free filtrates, cultures of Yersinia entomophaga grown in LB medium were centrifuged at 11,448 (g) for 10 minutes. The supernatant was decanted from the centrifuged pellet and filtered through a 0.22 μm filter. Assays were performed to determine concentrations of Yen-TC (toxin complex) using ELISA, and chitinase by measuring chitinase activity on specific substrates. […] This was done to estimate relative potency of the cell free filtrates. Insects were first pre-screened with a range of dilutions of cell free filtrates to select a concentration that provided moderate activity. […] Based on these initial screens, undiluted cell free filtrate was used for cabbage looper, fall armyworm, black cutworm, and Colorado potato beetle.
Cabbage leaf disks were dipped in either acetone (controls and Y. entomophaga alone treatments) or fipronil (Sigma 46451) at 12 mg/L in acetone. These were set to dry for 1 hr. […] After the cabbage disks had dried for 1 hr, a single 3rd instar fall armyworm was added to each individual cabbage disk. A total of 20 insects were evaluated for each treatment. Insects were observed daily and scored as live or dead.
Cabbage leaf disks were dipped in either acetone (controls and Y. entomophaga alone treatments) or esfenvalerate (Sigma 46277) at 56 mg/L in acetone. These were set to dry for 1 hr. […] After the cabbage disks had dried for 1 hr, a single 3rd instar fall armyworm was added to each individual cabbage disk. A total of 20 insects were evaluate for each treatment. Insects were observed daily and scored as live or dead.

[5] = test system: fall armyworm; assay: Leaf disk mortality assay, Y. entomophaga cells with chemical insecticides; conditions: for mortality at 4 µg/mL: Spodoptera frugiperda, foliar; for % Mort. Chem. / LT50 Chem.: fall armyworm
[6] = test system: diamondback moth; assay: whole plant or invertebrate; conditions: indoxacarb […]
Description: (§1) These were set to dry for 1 hr.
as §1
These were set to dry for 1 hr. Cabbage disks were then dipped in either 1% Luria broth (LB) media solution (controls and thiacloprid alone treatments) or in 1% cell free filtrate from a culture Y. entomophaga isolate O24G3R (Y. entomophaga alone or in combination with thiacloprid treatments).

[7] = test system: black cutworm; conditions: indoxacarb 0.53 mg/L
Description: (§2) To produce cell free filtrates, cultures of Yersinia entomophaga grown in LB medium were centrifuged at 11,448 (g) for 10 minutes. The supernatant was decanted from the centrifuged pellet and filtered through a 0.22 μm filter. Assays were performed to determine concentrations of Yen-TC (toxin complex) using ELISA, and chitinase by measuring chitinase activity on specific substrates. […] This was done to estimate relative potency of the cell free filtrates. Insects were first pre-screened with a range of dilutions of cell free filtrates to select a concentration that provided moderate activity. […] Based on these initial screens, undiluted cell free filtrate was used for cabbage looper, fall armyworm, black cutworm, and Colorado potato beetle. […] In each of the Examples below, this is expressed as 1%.
Cabbage leaf disks were dipped in either acetone (controls and Y. entomophaga alone treatments) or in indoxacarb (Sigma 33969) at 0.53 mg/L in acetone. These were set to dry for 1 hr. […] After the cabbage disks had dried for 1 hr, a single 2nd instar black cutworm was added to each individual cabbage disk. A total of 20 insects were evaluate for each treatment. Insects were observed daily and scored as live or dead.
Cabbage leaf disks were dipped in either acetone (controls and Y. entomophaga alone treatments) or in flubendiamide (Sigma 32801) at 0.59 mg/L in acetone. These were set to dry for 1 hr. […] After the cabbage disks had dried for 1 hr, a single 2nd instar black cutworm was added to each individual cabbage disk. A total of 20 insects were evaluate for each treatment. Insects were observed daily and scored as live or dead.

[8] = test system: cabbage looper; conditions: for LT50 Chem. / % Mort. Chem.: Cabbage Looper
Description: as §2
Cabbage leaf disks were dipped in either acetone (controls and Y. entomophaga alone treatments) or novaluron (Sigma 32419) at 1.0 mg/L in acetone. These were set to dry for 1 hr. […] After the cabbage disks had dried for 1 hr, a single 3rd instar cabbage looper was added to each individual cabbage disk. A total of 20 insects were evaluate for each treatment. Insects were observed daily and scored as live or dead.

[9] = test system: black cutworm; assay: Leaf disk mortality assay, Y. entomophaga cells with chemical insecticides
[10] = test system: cabbage looper; assay: whole plant or invertebrate; conditions: Trichoplusia ni, foliar
[11] = 3rd instar, indoxacarb 0.53 mg/L, isolate O43NEW 1×10^6 cfu/mL
[12] = 3rd instar, indoxacarb 0.53 mg/L, isolate O43NEW 1×10^4 cfu/mL

CNC(=O)Oc1cccc2ccccc12 [Carbaryl]
% Mortality (4DAT) ([1]; in vivo): 50%
% Mortality (5DAT) ([1]; in vivo): 65%
LT50 (95% confidence intervals) in days ([1]; in vivo): 4.06 (3.65-4.52) days
% Mort. Chem. ([1]; tobacco budworm, Carbaryl 100 mg/L, 4 DAT): 50%
LT50 Chem. ([1]; tobacco budworm, Carbaryl alone 100 mg/L): 4.06 days
Average CFU ([2]; 1.0 mg insecticide): 456 CFU
Average CFU ([2]; 9.6 mg insecticide): 459 CFU
% Mort. Chem. ([3]; cabbage looper, Carbaryl 100 mg/L, 2 DAT): 21%
LT50 Chem. ([3]; cabbage looper, Carbaryl alone 100 mg/L): 3.60 days
% Mortality (1DAT) ([3]; in vivo): 4%
% Mortality (2DAT) ([3]; in vivo): 21%
LT50 (95% confidence intervals) in days ([3]; in vivo): 3.60 (3.12-4.17) days

N#Cc1nn(-c2c(Cl)cc(C(F)(F)F)cc2Cl)c(N)c1[S+]([O-])C(F)(F)F (centres unmarked) [Fipronil]
LT50 (95% confidence intervals) in days ([4]; 3rd instar fall armyworm, O43NEW undiluted filtrate, alone or combined): 51.74 (34.99-79.58) days
LT50 Chem. ([4]; Fall armyworm): 51.74 days
% Mort. Chem. ([4]; Fall armyworm, 8 DAT): 0%
LT50 (95% confidence intervals) in days ([5]; 3rd instar, fipronil 4 mg/L, isolate O24G3R 1×10^5 cfu/mL): 6.71 (6.15-7.32) days
LT50 (95% confidence intervals) in days ([5]; 3rd instar, fipronil 4 mg/L, isolate O24KEK 1×10^5 cfu/mL): 6.71 (6.15-7.31) days
LT50 (95% confidence intervals) ([5]; 3rd instar, fipronil 4 mg/L, isolate O43NEW 1×10^5 cfu/mL): 8.86 days
LT50 (95% confidence intervals) in days ([5]; 3rd instar, fipronil 4 mg/L, isolate O333A4 1×10^5 cfu/mL): 6.71 (6.15-7.31) days
mortality at 4 µg/mL ([5]; 96 h, read-out: % Mortality (4DAT), 3rd instar, fipronil 4 mg/L, isolate O24G3R 1×10^5 cfu/mL): 5%
mortality at 4 µg/mL ([5]; 96 h, read-out: % Mortality (4DAT), 3rd instar, fipronil 4 mg/L, isolate O24KEK 1×10^5 cfu/mL): 5%
mortality at 4 µg/mL ([5]; 96 h, read-out: % Mortality (4DAT), 3rd instar, fipronil 4 mg/L, isolate O333A4 1×10^5 cfu/mL): 5%
mortality at 4 µg/mL ([5]; 120 h, read-out: % Mortality (5DAT), 3rd instar, fipronil 4 mg/L, isolate O24G3R 1×10^5 cfu/mL): 21%
mortality at 4 µg/mL ([5]; 120 h, read-out: % Mortality (5DAT), 3rd instar, fipronil 4 mg/L, isolate O24KEK 1×10^5 cfu/mL): 21%
mortality at 4 µg/mL ([5]; 120 h, read-out: % Mortality (5DAT), 3rd instar, fipronil 4 mg/L, isolate O43NEW 1×10^5 cfu/mL): 5%
mortality at 4 µg/mL ([5]; 120 h, read-out: % Mortality (5DAT), 3rd instar, fipronil 4 mg/L, isolate O333A4 1×10^5 cfu/mL): 21%
mortality at 4 µg/mL ([5]; 144 h, read-out: % Mortality (6DAT), 3rd instar, fipronil 4 mg/L, isolate O24KEK 1×10^5 cfu/mL): 39%
mortality at 4 µg/mL ([5]; 144 h, read-out: % Mortality (6DAT), 3rd instar, fipronil 4 mg/L, isolate O43NEW 1×10^5 cfu/mL): 20%
mortality at 4 µg/mL ([5]; 144 h, read-out: % Mortality (6DAT), 3rd instar, fipronil 4 mg/L, isolate O333A4 1×10^5 cfu/mL): 39%
% Mort. Chem. ([5]; Fipronil 4 mg/L, 4 DAT (row with O24KEK)): 5%
% Mort. Chem. ([5]; Fipronil 4 mg/L, 4 DAT (row with O333A4)): 5%
% Mort. Chem. ([5]; Fipronil 4 mg/L, 5 DAT (row with O24G3R)): 21%
% Mort. Chem. ([5]; Fipronil 4 mg/L, 5 DAT (row with O43NEW)): 5%
LT50 Chem. ([5]; Fipronil alone 4 mg/L): 8.86 days and 6.71 days

COC(=O)N(C(=O)N1CO[C@@]2(C(=O)OC)Cc3cc(Cl)ccc3C2=N1)c1ccc(OC(F)(F)F)cc1 [Indoxacarb]
LT50 (95% confidence intervals) ([6]; 2nd instar diamondback moth, O43NEW filtrate 1%, alone or combined): 3.47 days
LT50 Chem. ([6]; Diamondback moth): 3.47 days
% Mortality (5DAT) [5, 11]: 5%
% Mortality (6DAT) [5, 11]: 10%
LT50 (95% confidence intervals) [5, 11]: 9.65 days
LT50 (95% confidence intervals) in days ([5]; 3rd instar, indoxacarb […], isolate O23ZMJ 1×10^5 cfu/mL): 5.14 (4.67-5.66) days
% Mort. Chem. ([5]; Indoxacarb 0.53 mg/L, 6 DAT): 10%
LT50 Chem. ([5]; Indoxacarb alone 0.53 mg/L): 9.65 days
LT50 Chem. ([5]; Indoxacarb alone […]): 5.14 days
LT50 (95% confidence intervals) in days ([7]; 2nd instar black cutworm, O43NEW undiluted filtrate, alone or combined): 10.99 (9.75-12.42) days
% Mortality (2DAT) ([7]; 2nd instar black cutworm, O43NEW undiluted filtrate, alone or combined, 2 DAT, Abbott's corrected): 0%
% Mortality (6DAT) ([7]; 2nd instar black cutworm, O43NEW undiluted filtrate, alone or combined, 6 DAT, Abbott's corrected): 0%
% Mortality (8DAT) ([7]; 2nd instar black cutworm, O43NEW undiluted filtrate, alone or combined, 8 DAT, Abbott's corrected): 11%
% Mortality (9DAT) ([7]; 2nd instar black cutworm, O43NEW undiluted filtrate, alone or combined, 9 DAT, Abbott's corrected): 21%
LT50 Chem. ([7]; Black cutworm): 10.99 days
% Mort. Chem. ([7]; Black cutworm, 9 DAT): 21%
LT50 Chem. ([8]; indoxacarb 0.53 mg/L): 11.98 days
% Mort. Chem. ([8]; indoxacarb 0.53 mg/L, 9 DAT): 25%
% Mortality (2DAT) ([8]; cabbage looper, indoxacarb 0.53 mg/L, undiluted O43NEW filtrate, 2 DAT, Abbott's corrected): 0%
% Mortality (6DAT) ([8]; cabbage looper, indoxacarb 0.53 mg/L, undiluted O43NEW filtrate, 6 DAT, Abbott's corrected): 15%
% Mortality (7DAT) ([8]; cabbage looper, indoxacarb 0.53 mg/L, undiluted O43NEW filtrate, 7 DAT, Abbott's corrected): 15%
% Mortality (8DAT) ([8]; cabbage looper, indoxacarb 0.53 mg/L, undiluted O43NEW filtrate, 8 DAT, Abbott's corrected): 25%
% Mortality (9DAT) ([8]; cabbage looper, indoxacarb 0.53 mg/L, undiluted O43NEW filtrate, 9 DAT, Abbott's corrected): 25%
% Mortality (12DAT) ([8]; cabbage looper, indoxacarb 0.53 mg/L, undiluted O43NEW filtrate, 12 DAT, Abbott's corrected): 61%
% Mortality (14DAT) ([8]; cabbage looper, indoxacarb 0.53 mg/L, undiluted O43NEW filtrate, 14 DAT, Abbott's corrected): 59%
% Mortality (3DAT) [9, 12]: 11%
% Mortality (4DAT) [9, 12]: 6%
% Mortality (5DAT) [9, 12]: 0%
% Mortality (6DAT) [9, 12]: 6%
LT50 (95% confidence intervals) in days [9, 12]: 7.64 (7.01-8.32) days
% Mort. Chem. ([9]; black cutworm, Indoxacarb 0.53 mg/L, 5 DAT): 0%
LT50 Chem. ([9]; black cutworm, Indoxacarb alone 0.53 mg/L): 7.64 days
Average CFU ([2]; 0.2 mg insecticide): 452 CFU
Average CFU ([2]; 1.1 mg insecticide): 477 CFU

CNC(=O)ON=C(C)SC [Methomyl]
Average CFU ([2]; 0.3 mg insecticide): 192 CFU
Average CFU ([2]; 3.4 mg insecticide): 0 CFU
mortality at 30 µg/mL ([10]; 24 h, read-out: % Mortality (1DAT)): 4%
mortality at 30 µg/mL ([10]; 48 h, read-out: % Mortality (2DAT)): 12%
LT50 Chem. ([3]; cabbage looper, Methomyl alone 30 mg/L): 5.84 days
% Mort. Chem. ([3]; in vivo): 12%
LT50 (95% confidence intervals) in days ([3]; in vivo): 5.84 (4.99-6.88) days

O=C(NC(=O)c1c(F)cccc1F)Nc1ccc(OC(F)(F)C(F)OC(F)(F)F)c(Cl)c1 (centres unmarked) [Novaluron]
LT50 Chem. ([8]; novaluron 1 mg/L): 7.31 days
% Mort. Chem. ([8]; novaluron 1 mg/L, 6 DAT): 0%
LT50 (95% confidence intervals) in days ([9]; 3rd instar, novaluron […], isolate O43NEW 1×10^4 cfu/mL): 9.40 (8.58-10.32) days
LT50 Chem. ([9]; black cutworm, Novaluron alone […]): 9.40 days
Average CFU ([2]; 0.1 mg insecticide): 528 CFU
Average CFU ([2]; 1.0 mg insecticide): 452 CFU
mortality at 1 µg/mL ([10]; 120 h, read-out: % Mortality (5DAT)): 11%
mortality at 1 µg/mL ([10]; 144 h, read-out: % Mortality (6DAT)): 21%
% Mort. Chem. ([3]; cabbage looper, Novaluron 1 mg/L, 5 DAT): 11%
LT50 Chem. ([3]; cabbage looper, Novaluron alone 1 mg/L): 7.55 days
LT50 (95% confidence intervals) in days ([3]; in vivo): 7.55 (7.01-8.13) days
